Publication PMC9685055, “Biological activity of new bioactive steroids deriving from biotransformation of cortisone” (Microbial Cell Factories, 2022)

Experiments:
[1] = Photochemiluminescence (PCL-ACL) antioxidant assay; settings: 0.1 mg/mL; Trolox equivalents per g of sample
Description: Photochemiluminescence assay, based on the methodology of Popov and Lewin [35], was performed to measure the antioxidant activity of cortisone, SCA and SCB compounds against superoxide anion radicals generated from luminol, a photosensitizer, when exposed to UV light at λmax = 351 nm. The antioxidant activity of compounds was measured using ACL kits (Analytic Jena, Jena, Germany) with a Photochem apparatus (Analytic Jena, Jena, Germany). In the PCL-ACL assay, the photochemical generation of free radicals is combined with the sensitive detection using chemiluminescence. In ACL studies, the kinetic light emission curve was monitored for 3 min and expressed as mM Trolox equivalents. The areas under the curves were calculated using the PCL soft control and analysis software. […] The observed inhibition of the signal was plotted against the concentration of Trolox added to the assay medium. The concentration of the added sample was such that the generated luminescence during the 3 min sampling interval fell within the limits of the standard curve. For ACL assay, 2.3 mL of reagent 1 (solvent and dilution reagent, methanol), 0.2 mL of reagent 2 (buffer solution), 25 μL of reagent 3 (photosensitizer: luminol 1 mmol L^−1), and 10 μL of standard or sample solution were mixed and measured. Luminol is used as a photosensitizer and as a detecting substance for free radicals. Trolox were used for the standard calibration curve from […].

[2] = target: T1, human glucocorticoid receptor (NR3C1) (Homo sapiens, UniProt P04150); assay: Glucocorticoid receptor transactivation reporter assay; type: cell-based; settings: 10 µM, 24 h, luciferase reporter cells
T1 construct: constitutive high-level expression of full length, unmodified human glucocorticoid receptor (NR3C1)
T1 sequence (P04150 1-777): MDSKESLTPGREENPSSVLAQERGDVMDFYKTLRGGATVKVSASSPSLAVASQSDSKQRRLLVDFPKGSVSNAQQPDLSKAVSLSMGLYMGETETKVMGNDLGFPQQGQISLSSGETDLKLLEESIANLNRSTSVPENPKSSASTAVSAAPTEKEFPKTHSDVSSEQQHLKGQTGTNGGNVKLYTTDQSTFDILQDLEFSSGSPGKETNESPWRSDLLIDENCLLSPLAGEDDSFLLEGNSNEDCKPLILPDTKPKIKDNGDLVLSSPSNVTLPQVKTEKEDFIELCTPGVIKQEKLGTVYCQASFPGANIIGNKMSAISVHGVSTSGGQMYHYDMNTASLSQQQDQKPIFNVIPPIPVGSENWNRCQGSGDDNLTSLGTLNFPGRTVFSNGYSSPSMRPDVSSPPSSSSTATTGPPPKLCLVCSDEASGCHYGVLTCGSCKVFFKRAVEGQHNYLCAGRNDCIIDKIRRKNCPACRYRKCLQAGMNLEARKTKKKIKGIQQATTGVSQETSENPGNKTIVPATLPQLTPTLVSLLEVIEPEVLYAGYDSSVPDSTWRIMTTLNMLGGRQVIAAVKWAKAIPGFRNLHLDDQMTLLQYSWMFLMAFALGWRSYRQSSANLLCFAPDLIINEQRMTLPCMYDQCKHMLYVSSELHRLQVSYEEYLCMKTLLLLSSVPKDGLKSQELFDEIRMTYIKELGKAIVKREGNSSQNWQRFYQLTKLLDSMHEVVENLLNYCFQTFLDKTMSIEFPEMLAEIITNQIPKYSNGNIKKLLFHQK
Description: Glucocorticoid receptor transactivation assays kit was obtained from Indigo Biosciences (Human Glucocorticoid Receptor Reporter Assay Kit, Product #IB0020-32; Indigo Biosciences, State College, PA, USA) and was utilized to assess the activation of human glucocorticoid receptor by SCA and/or SCB. Briefly, stocks of the tested compounds were prepared and diluted in a medium provided by the manufacturer. Frozen reporter cells provided in the assay kit were thawed and compound dilutions were added immediately. Cells were incubated for 24 h and the activation response was measured on a luminometer (Perkin-Elmer, MA, USA). The cells consisted of non-human mammalian cells engineered by Indigo Biosciences to provide constitutive high-level expression of full length, unmodified human glucocorticoid receptor (NR3C1). The nonhuman mammalian reporter cells included a luciferase reporter gene functionally linked to a human glucocorticoid receptor-responsive promoter. The cells are engineered so that only interactions with the human receptor will induce luciferase expression in the treated reporter cells to quantitate nuclear receptor activation. Positive control ligand performance was measured by the manufacturer and provided in the technical manuals thus allowing accurate comparison for assay performance. […]

[3] = test system: IL-1α secretion in TNFα-stimulated HaCaT cells; assay: TNFα-induced IL-1α secretion, ELISA; type: cell-based, human; settings: 10 μM pretreatment 24 h, then 10 ng/mL TNFα 1 h, supernatant 24 h later
Description: HaCaT cells were cultured with Dulbecco’s modified Eagle’s medium High Glucose (Lonza, Milan, Italy) supplemented with 10% FBS, 100 U/mL penicillin, 100 μg/mL streptomycin and 2 mM L-glutamine as previously described. Cells were maintained in a humidified incubator at 37 °C with 5% CO2 and incubated until the monolayer was 80% confluent. Medium was changed every 2 days.
HaCaT cells were pretreated with or without 10 μM of both SCA and SCB for 24 h. Stock solutions of the two compounds were prepared in DMSO immediately before use and diluted to the final concentration in the culture medium. In some sets of experiments, betamethasone-17-valerate (10 µg/mL) served as a positive control; dimethyl sulfoxide (DMSO) served as a solvent control. After the pretreatments, cells were stimulated with 10 ng/mL TNFα for 1 h to induce the NFκB signaling pathway. Then, media were replaced with fresh culture medium. […]
IL-1α secretion, after the treatment with 10 and 20 µM of each compound and together at the same concentrations, was assayed by a commercially available ELISA kit (Thermo Scientific, Italy). […] The optical absorbance was measured with a spectrophotometer microplate reader at 450 nm and correction at 530 nm. Final concentrations were calculated by interpolation with a standard curve of Recombinant Human IL-1α provided by the kit and results expressed as pg/mL.

For Cc1ccc(O)c2c1CCC1C3CC[C@](O)(C(=O)CO)[C@@]3(C)CC(=O)[C@@]21O (stereo partly drawn) [SCA, 1,9β,17,21‐tetrahydoxy‐4‐methyl‐19‐nor‐9β‐pregna‐1,3,5(10)‐trien‐11,20‐dione], the “antioxidant capacity, PCL-ACL assay” value [1] was 1375 µmol/g, the glucocorticoid receptor activation [2] was “activated glucocorticoid receptors” and the “effect on TNFα-triggered IL-1α release” value [3] was “markedly inhibited”.

For Cc1ccc(O)c2c1CCC1C3CC[C@](O)([C@H](O)CO)[C@@]3(C)CC(=O)[C@@]21O (stereo partly drawn) [SCB, 1,9β,17,20β,21‐ pentahydoxy‐4‐methyl‐19‐nor‐9β‐pregna‐1,3,5(10)‐trien‐11‐one], the “antioxidant capacity, PCL-ACL assay” value [1] was 1265 µmol/g, the glucocorticoid receptor activation [2] was “activated glucocorticoid receptors” and the “effect on TNFα-triggered IL-1α release” value [3] was “markedly inhibited”.
